According to patent publication US20180235210A1, “ANTISENSE COMPOSITIONS TARGETING ERWINIA SPECIES AND METHODS OF USING THE SAME” (priority 2017, published 2018):

Key:
[1] = test system: Erwinia amylovora Ea110; assay: Measurement of bacterial growth inhibition / MIC in LB broth; assay type: cell-based
Method: The highly-virulent strain E. amylovora Ea110, which was isolated from an apple orchard in Michigan (Zhao et al., 2005), was used in this study. Bacterial strains were stored at −80° C. in 15% glycerol and cultured in Luria-Bertani (LB) medium at 28° C. PNA-CPP was synthesized using Bts oligomerization method by Panagene Inc (Daejeon, Korea). Streptomycin and PNA-CPP were implemented at rates indicated in each assay.
Erwinia amylovora Ea110 was cultured in LB broth overnight and then cell concentrations were adjusted to 5×10^5 CFU/ml in LB broth. A total of 80 μl of the bacterial suspension in LB was added into each well of a 96 well plate. Lyophilized PNA-CPP was resuspended in water to a stock concentration of 100 μM and was serial diluted. Twenty μl of the diluted PNA-CPP solution was added into each well that contained 80 μl of the bacterial suspension in LB to make the final concentrations indicated in each assay. Water and streptomycin were added to the wells as negative and positive controls. The plate was incubated at 28° C. with orbital shaking in a BioTek Synergy H1 microplate reader (BioTek, Winooski, Vt., USA) for 20 hr. During the incubation, the OD 600 of each well was measured every 10 min. The lowest concentration of a PNA-CPP that prevented growth after 20 hr represented the MIC. Three replicates were included in each testing, and the experiment was repeated twice.

[2] = test system: acpP mRNA; assay: Northern blot detection of acpP expression in treated cells; assay type: cell-based, Erwinia amylovora; details: streptomycin 1 μM and 3 μM, 15.5 hrs post inoculation
Method: E. amylovora Ea110 was inoculated into LB broth at the final concentration of 5×10^5 CFU/ml, and was treated with various concentrations of PNA-CPP, water, or streptomycin. The inoculated cells were incubated at 28° C. with orbital shaking, and were collected for RNA isolation at 15.5 hrs post inoculation. Total bacterial RNA was isolated using the RNeasy Protect Bacteria Mini Kit (Qiagen, Valencia, Calif., USA) following the manufacturer's instructions. The quality and quantity of RNA was measured with a Nanodrop 2000c (Thermo Scientific, Wilmington, Del., USA).
The probe for acpP detection in Northern blots was synthesized from polymerase chain reaction (PCR) using acpP primers (forward primer 5′-TGGGCGTTAAGCAGGAAGAAG-3′ (SEQ ID NO: 5) and reverse primer 5′-TACGCCTGGTGACCATTGAT (SEQ ID NO: 6)). The PCR product was purified using a QIAquick PCR Purification kit (Qiagen) and labelled using a Biotin DecaLabel DNA Labeling Kit (Thermo Fisher Scientific, Grand Island, N.Y.) as per instruction of kit manual. Thirty micrograms of RNA was loaded for each sample and was separated on a formaldehyde denaturing gel in MOPS buffer. BrightStar®-Plus positively-charged nylon membranes (Thermo Fisher Scientific) were used for transfer of RNA from gel to membrane. […] The biotin signal was detected using a Biotin Chromogenic Detection Kit (Thermo Fisher Scientific).

[3] = test system: apple flower-associated bacteria; assay: Susceptibility of apple flower-associated bacteria and biocontrol strains (panel); assay type: cell-based; details: streptomycin 20 μM
Method: Fifty flowers were collected from apple trees Malus×domestica ‘McIntosh’ from the Hamden, Conn. Lockwood farm in May 2016. The stigmas from all 50 flowers were removed, placed into 3 ml of 0.5×PBS, vortexed for 20 seconds, and sonicated for 5 min in a water bath sonicator to release the stigma associated bacteria. PBS buffer containing bacteria cells was serially diluted (10×, 100× and 1000×) and plated on LB agar medium and incubated at 28° C. for 48 h. On the basis of morphological colony characteristics, 200 bacterial colonies were shortlisted, sub-cultured, and identified using 16s rDNA sequencing using the forward primer 63f (5′-CAGGCCTAACACATGCAAGTC-3′) (SEQ ID NO: 10) and reverse primer 1387r (5′-GGG CGG WGT GTA CAA GGC-3′) (SEQ ID NO: 11). Fifteen different species were selected from the 200 bacterial cultures for testing against anti-acpP-CPP1 and streptomycin. Biological control agents Pseudomonas fluorescence A506, Bacillus amyloliquefaciens D747 and Pantoea agglomerans E325 were isolated from the original products on LB agar plate.
Compared to the traditional antibiotics that kill microbes with little selection, antisense antimicrobials inhibit bacterial growth through a sequence specific manner. […] Two hundred bacterial colonies were subcultured, and the identities of these colonies were determined by 16S rDNA sequencing. […]

Row | Compound | MIC ([1]; Erwinia amylovora, E. amylovora Ea110, LB broth, 28° C., 20 hr, read-out: minimal inhibitory concentration (MIC)) [µM] | acpP mRNA abundance [2] | susceptibility of strains tested [3] | growth inhibition of E. amylovora ([1]; LB broth, any concentration tested, compared to water)
1 | [H]/N=C(/N)N[C@H]1[C@H](O)[C@@H](O)[C@H](O[C@@H]2O[C@@H](C)[C@](O)(C=O)[C@H]2O[C@@H]2O[C@@H](CO)[C@H](O)[C@@H](O)[C@@H]2NC)[C@@H](N/C(N)=N\[H])[C@@H]1O [streptomycin] | 2 | did not affect | All strains tested are susceptible to streptomycin with the exception of P. fluorescens A506 | –
2 | anti-acpP PNA: 10-nucleotide PNA oligomer 5′-ctcatactat-3′ (SEQ ID NO: 1), antisense to start codon region of acpP, no CPP (CTCATACTAT; all peptide nucleic acid (PNA)) | – | – | – | did not display any growth inhibition
